The kinase profiling compilation of Christmann-Franck et al. (2016)

Key:
Assay in all cases: split-luciferase competition binding
PRKACB (human) = PRKACB (human) (UniProt P22694); details: compound 10.0 µM
STK32B (human) = STK32B (human) (UniProt Q9NY57); details: compound 10.0 µM
RPS6KA6 KD1 (human) = RPS6KA6 KD1 (human) (UniProt Q9UK32); details: compound 10.0 µM
RPS6KA1 KD1 (human) = RPS6KA1 KD1 (human) (UniProt Q15418); details: compound 10.0 µM
RPS6KA4 KD1 (human) = RPS6KA4 KD1 (human) (UniProt O75676); details: compound 10.0 µM
PDPK1 (human) = PDPK1 (human) (UniProt O15530); details: compound 10.0 µM
AKT2 (human) = AKT2 (human) (UniProt P31751); details: compound 10.0 µM
PRKACA (mouse) = details: compound 10.0 µM; accession and sequence are those of the human protein
AURKC (human) = AURKC (human) (UniProt Q9UQB9); details: compound 10.0 µM
AURKA (human) = AURKA (human) (UniProt O14965); details: compound 10.0 µM
PRKCD (human) = PRKCD (human) (UniProt Q05655); details: compound 10.0 µM
PKN1 (human) = PKN1 (human) (UniProt Q16512); details: compound 10.0 µM
RPS6KA2 KD1 (human) = RPS6KA2 KD1 (human) (UniProt Q15349); details: compound 10.0 µM
RPS6KA5 KD1 (human) = RPS6KA5 KD1 (human) (UniProt O75582); details: compound 10.0 µM
PRKX (human) = PRKX (human) (UniProt P51817); details: compound 10.0 µM
AKT1 (human) = AKT1 (human) (UniProt P31749); details: compound 10.0 µM
PRKCE (human) = PRKCE (human) (UniProt Q02156); details: compound 10.0 µM
SGK3 (human) = SGK3 (human) (UniProt Q96BR1); details: compound 10.0 µM
PRKCQ (human) = PRKCQ (human) (UniProt Q04759); details: compound 10.0 µM
AKT3 (human) = AKT3 (human) (UniProt Q9Y243); details: compound 10.0 µM
DMPK (human) = DMPK (human) (UniProt Q09013); details: compound 10.0 µM
SGK2 (human) = SGK2 (human) (UniProt Q9HBY8); details: compound 10.0 µM
PRKCI (human) = PRKCI (human) (UniProt P41743); details: compound 10.0 µM
PRKCH (human) = PRKCH (human) (UniProt P24723); details: compound 10.0 µM
PRKCG (human) = PRKCG (human) (UniProt P05129); details: compound 10.0 µM
RPS6KA3 KD1 (human) = RPS6KA3 KD1 (human) (UniProt P51812); details: compound 10.0 µM
AURKB (human) = AURKB (human) (UniProt Q96GD4); details: compound 10.0 µM
Sequence of AURKB (human) (Q96GD4 whole entry, looked up): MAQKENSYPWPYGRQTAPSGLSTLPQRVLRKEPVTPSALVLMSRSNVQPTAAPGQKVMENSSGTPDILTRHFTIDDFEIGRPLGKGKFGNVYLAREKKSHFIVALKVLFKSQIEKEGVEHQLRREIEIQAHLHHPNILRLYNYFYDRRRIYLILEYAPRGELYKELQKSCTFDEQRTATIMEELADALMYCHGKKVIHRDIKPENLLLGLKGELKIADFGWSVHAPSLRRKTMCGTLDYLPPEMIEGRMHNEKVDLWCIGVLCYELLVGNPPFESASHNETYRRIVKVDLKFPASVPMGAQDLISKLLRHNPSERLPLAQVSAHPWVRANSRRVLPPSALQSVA

Sequence of PDPK1 (human) (O15530 whole entry, looked up): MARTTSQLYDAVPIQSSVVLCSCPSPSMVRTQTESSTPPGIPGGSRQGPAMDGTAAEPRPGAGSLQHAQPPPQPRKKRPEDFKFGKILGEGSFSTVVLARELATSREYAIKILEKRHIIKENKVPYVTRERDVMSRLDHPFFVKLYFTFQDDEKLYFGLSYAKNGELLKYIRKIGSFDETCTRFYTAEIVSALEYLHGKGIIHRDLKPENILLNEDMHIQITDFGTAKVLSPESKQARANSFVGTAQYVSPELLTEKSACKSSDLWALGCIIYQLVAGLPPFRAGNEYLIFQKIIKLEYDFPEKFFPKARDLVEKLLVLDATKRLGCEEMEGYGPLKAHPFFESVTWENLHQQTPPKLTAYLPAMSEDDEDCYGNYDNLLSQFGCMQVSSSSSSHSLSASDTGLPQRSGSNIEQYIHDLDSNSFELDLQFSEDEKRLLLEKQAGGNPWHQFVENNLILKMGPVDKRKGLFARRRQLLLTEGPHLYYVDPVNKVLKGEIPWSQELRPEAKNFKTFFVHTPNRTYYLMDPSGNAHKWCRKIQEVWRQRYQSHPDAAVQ
Sequence of AURKA (human) (O14965 whole entry, looked up): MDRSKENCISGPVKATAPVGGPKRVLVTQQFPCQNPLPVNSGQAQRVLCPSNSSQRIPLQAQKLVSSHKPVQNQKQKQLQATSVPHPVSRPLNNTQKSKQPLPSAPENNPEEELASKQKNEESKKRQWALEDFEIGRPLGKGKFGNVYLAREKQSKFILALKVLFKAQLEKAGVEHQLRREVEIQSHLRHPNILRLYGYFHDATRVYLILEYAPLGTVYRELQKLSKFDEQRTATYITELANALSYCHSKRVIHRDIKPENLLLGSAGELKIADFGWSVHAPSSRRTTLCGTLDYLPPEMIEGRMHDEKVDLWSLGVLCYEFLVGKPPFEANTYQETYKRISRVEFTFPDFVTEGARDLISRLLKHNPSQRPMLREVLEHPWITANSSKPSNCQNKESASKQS
Sequence of AKT1 (human) (P31749 whole entry, looked up): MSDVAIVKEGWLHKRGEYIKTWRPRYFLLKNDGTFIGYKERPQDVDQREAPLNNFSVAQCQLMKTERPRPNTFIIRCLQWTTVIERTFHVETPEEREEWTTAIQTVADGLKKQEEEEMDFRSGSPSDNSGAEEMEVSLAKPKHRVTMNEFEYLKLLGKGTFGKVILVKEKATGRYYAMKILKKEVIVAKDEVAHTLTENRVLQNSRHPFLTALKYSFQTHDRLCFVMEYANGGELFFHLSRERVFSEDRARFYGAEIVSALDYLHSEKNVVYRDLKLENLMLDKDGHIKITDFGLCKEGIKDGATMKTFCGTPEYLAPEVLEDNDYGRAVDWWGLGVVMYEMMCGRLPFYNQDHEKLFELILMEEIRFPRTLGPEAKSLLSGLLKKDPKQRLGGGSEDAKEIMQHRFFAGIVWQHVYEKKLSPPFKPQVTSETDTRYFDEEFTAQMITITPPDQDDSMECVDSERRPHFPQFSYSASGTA
Sequence of SGK2 (human) (Q9HBY8 whole entry, looked up): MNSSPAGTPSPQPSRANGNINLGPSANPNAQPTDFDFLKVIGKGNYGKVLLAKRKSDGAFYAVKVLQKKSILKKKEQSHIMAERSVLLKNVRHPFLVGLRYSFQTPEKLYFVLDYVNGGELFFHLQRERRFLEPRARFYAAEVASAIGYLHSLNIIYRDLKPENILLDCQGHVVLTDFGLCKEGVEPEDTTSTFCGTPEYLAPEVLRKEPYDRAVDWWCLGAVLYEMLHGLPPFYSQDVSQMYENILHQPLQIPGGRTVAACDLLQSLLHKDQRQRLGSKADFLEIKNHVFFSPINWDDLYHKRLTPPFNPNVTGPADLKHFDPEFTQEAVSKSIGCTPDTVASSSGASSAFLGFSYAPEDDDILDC
Sequence of RPS6KA4 KD1 (human) (O75676 whole entry, looked up): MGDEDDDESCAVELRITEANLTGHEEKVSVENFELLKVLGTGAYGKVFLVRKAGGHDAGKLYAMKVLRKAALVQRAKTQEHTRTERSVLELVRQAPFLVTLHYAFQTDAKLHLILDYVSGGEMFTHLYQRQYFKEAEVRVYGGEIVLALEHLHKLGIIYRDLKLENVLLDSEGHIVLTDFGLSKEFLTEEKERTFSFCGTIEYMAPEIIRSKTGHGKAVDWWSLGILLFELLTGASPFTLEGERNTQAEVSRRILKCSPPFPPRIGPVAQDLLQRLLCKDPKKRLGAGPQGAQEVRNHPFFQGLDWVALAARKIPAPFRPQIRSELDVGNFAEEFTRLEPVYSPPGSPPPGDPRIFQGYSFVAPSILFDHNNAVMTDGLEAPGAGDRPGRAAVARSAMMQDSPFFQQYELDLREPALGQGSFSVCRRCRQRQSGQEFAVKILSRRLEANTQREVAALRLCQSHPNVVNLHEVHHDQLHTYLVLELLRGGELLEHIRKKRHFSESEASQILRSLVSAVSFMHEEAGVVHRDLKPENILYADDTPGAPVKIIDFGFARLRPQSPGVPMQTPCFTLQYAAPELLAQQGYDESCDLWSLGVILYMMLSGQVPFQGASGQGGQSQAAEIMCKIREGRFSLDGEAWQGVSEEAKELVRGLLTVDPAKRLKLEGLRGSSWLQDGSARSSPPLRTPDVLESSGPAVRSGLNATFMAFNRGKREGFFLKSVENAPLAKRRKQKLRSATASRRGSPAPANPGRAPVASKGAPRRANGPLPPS
Sequence of SGK3 (human) (Q96BR1 whole entry, looked up): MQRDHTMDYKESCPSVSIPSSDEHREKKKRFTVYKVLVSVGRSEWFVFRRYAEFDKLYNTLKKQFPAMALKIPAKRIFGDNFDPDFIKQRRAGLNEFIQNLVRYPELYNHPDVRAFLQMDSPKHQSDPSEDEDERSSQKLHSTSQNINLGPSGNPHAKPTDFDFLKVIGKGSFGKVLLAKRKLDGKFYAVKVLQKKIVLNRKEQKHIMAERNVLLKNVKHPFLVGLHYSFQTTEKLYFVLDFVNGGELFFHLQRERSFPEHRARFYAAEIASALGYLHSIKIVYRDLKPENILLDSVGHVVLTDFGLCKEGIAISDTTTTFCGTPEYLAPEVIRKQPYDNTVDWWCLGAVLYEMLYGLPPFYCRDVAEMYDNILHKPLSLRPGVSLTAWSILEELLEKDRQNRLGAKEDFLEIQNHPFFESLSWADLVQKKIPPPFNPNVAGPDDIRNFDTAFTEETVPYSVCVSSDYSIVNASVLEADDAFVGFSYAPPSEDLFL
Sequence of PRKCE (human) (Q02156 whole entry, looked up): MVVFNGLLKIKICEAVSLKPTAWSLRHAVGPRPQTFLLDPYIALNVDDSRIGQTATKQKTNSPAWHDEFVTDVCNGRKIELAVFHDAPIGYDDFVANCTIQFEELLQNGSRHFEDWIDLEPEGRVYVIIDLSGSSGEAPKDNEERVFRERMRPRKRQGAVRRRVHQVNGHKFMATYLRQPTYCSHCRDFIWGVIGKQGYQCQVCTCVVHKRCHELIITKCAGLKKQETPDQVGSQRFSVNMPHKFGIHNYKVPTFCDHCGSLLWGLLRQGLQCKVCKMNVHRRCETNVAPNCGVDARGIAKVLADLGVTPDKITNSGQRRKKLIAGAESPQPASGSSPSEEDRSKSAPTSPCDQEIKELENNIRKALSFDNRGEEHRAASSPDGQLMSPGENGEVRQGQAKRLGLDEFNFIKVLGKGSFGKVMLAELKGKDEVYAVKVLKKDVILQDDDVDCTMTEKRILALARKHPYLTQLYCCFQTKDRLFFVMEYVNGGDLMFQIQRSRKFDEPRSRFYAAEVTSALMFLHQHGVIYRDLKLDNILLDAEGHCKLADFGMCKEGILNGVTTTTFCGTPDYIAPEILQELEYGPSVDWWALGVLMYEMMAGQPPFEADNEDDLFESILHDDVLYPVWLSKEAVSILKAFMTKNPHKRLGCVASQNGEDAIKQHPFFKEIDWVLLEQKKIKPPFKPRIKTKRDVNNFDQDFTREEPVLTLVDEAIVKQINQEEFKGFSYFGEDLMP

SMILES	inhibition (PRKACB (human)) [%]	inhibition (STK32B (human)) [%]	inhibition (RPS6KA6 KD1 (human)) [%]	inhibition (RPS6KA1 KD1 (human)) [%]	inhibition (RPS6KA4 KD1 (human)) [%]	inhibition (PDPK1 (human)) [%]	inhibition (AKT2 (human)) [%]	inhibition (PRKACA (mouse)) [%]	inhibition (AURKC (human)) [%]	inhibition (AURKA (human)) [%]	inhibition (PRKCD (human)) [%]	inhibition (PKN1 (human)) [%]	inhibition (RPS6KA2 KD1 (human)) [%]	inhibition (RPS6KA5 KD1 (human)) [%]	inhibition (PRKX (human)) [%]	inhibition (AKT1 (human)) [%]	inhibition (PRKCE (human)) [%]	inhibition (SGK3 (human)) [%]	inhibition (PRKCQ (human)) [%]	inhibition (AKT3 (human)) [%]	other results
Nc1ncnc2[nH]nc(Nc3ccc(F)cc3)c12	1	42	0	0	0	0	0	9	16	0	0	1	0	0	24	3	6	23	17	0	inhibition (DMPK (human)): 2%; inhibition (SGK2 (human)): 9%; inhibition (PRKCI (human)): 0%; inhibition (PRKCH (human)): 13%; inhibition (PRKCG (human)): 0%; inhibition (RPS6KA3 KD1 (human)): 0%; inhibition (AURKB (human)): 14%
Oc1ccc(-c2nc(-c3ccc(F)cc3)c(-c3ccncc3)[nH]2)cc1	0	11	0	0	0	0	0	11	21	0	7	0	0	0	13	5	0	0	0	0	inhibition (DMPK (human)): 0%; inhibition (SGK2 (human)): 0%; inhibition (PRKCI (human)): 0%; inhibition (PRKCH (human)): 0%; inhibition (PRKCG (human)): 0%; inhibition (RPS6KA3 KD1 (human)): 0%; inhibition (AURKB (human)): 0%
NC(=O)Nc1sc(-c2ccc(F)cc2)cc1C(N)=O	0	0	37	44	16	0	0	4	31	1	0	0	20	0	9	0	19	0	18	0	inhibition (DMPK (human)): 0%; inhibition (SGK2 (human)): 0%; inhibition (PRKCI (human)): 0%; inhibition (PRKCH (human)): 56%; inhibition (PRKCG (human)): 0%; inhibition (RPS6KA3 KD1 (human)): 7%; inhibition (AURKB (human)): 56%
COc1nccc(-c2c(-c3ccc(F)cc3)ncn2[C@H]2CC[C@H](O)CC2)n1	1	40	0	0	0	0	0	0	0	4	6	12	0	0	11	0	0	0	6	0	inhibition (DMPK (human)): 0%; inhibition (SGK2 (human)): 0%; inhibition (PRKCI (human)): 0%; inhibition (PRKCH (human)): 0%; inhibition (PRKCG (human)): 9%; inhibition (RPS6KA3 KD1 (human)): 0%; inhibition (AURKB (human)): 6%
COc1cc2ncn(-c3cc(OCc4ccccc4C(F)(F)F)c(C(N)=O)s3)c2cc1OC	12	15	59	10	14	2	0	14	28	2	4	4	30	0	11	12	12	0	23	0	inhibition (DMPK (human)): 18%; inhibition (SGK2 (human)): 4%; inhibition (PRKCI (human)): 0%; inhibition (PRKCH (human)): 0%; inhibition (PRKCG (human)): 10%; inhibition (RPS6KA3 KD1 (human)): 27%
